Test results: patent publication US7511047B2, “Kinase inhibitors” (Cytopia Research Pty Ltd, priority 2002, dated 2009)

What was measured:
Type in all cases: biochemical
Jak2 = target: T1, Jak2 (Homo sapiens, UniProt O60674); test: JAK2 kinase domain assay (ELISA or Alphascreen); conditions: capacity to inhibit 50% of activity at 50 μM; read-out: Jak2 inhibitory activity
T1 construct: The kinase domain of humanJAK2 was amplified from U937mRNA; His tag (from pFastBac HTc vector) (N); made in house; host or cells: baculovirus; Sf9 insect cells for virus, High Five cells for large-scale production
Method: (§1) For screening purposes, compounds were diluted in 96 well plates at a concentration of 20 μM. Plates were warmed at 37° C. for 30 minutes before assay.
(§2) • JAK1 PCR products were cloned into the pFastBac HTb expression vector (Gibco) via the Xho I and Kpn I sites. The JAK1 plasmid was then transformed into competent DH10Bac cells (Gibco), and the recombinant baculovirus produced prepared for transfection into Sf9 insect cells. JAK2 • The kinase domain of humanJAK2 was amplified from U937mRNA using the polymerase chain reaction with the following primers:
• JAK2 PCR products were cloned into the pFastBac HTc expression vector (Gibco) via the Sal I and Not I sites. The JAK2 plasmid was then transformed into competent DH10Bac cells (Gibco), and the recombinant baculovirus produced prepared for transfection into Sf9 insect cells. JAK3 • The kinase domain of humanJAK3 was amplified from U937mRNA using the polymerase chain reaction with the following primers: […]
(§3) Baculovirus preparations from each of the JAK family members were infected into five litres of High Five cells (Invitrogen) grown in High Five serum free medium (Invitrogen) to a cell density of approximately 1-2×10^6 cells/ml. Cells are infected with virus at a MOI of 0.8-3.0. Cells were harvested and lysed. JAK kinase domains were purified by affinity chromatography on a Probond (Invitrogen) nickel chelate affinity column.
(§4) Kinase assays were performed either in a 96 well capture-based ELISA assay or in 384 well Optiplates (Packard) using an Alphascreen Protein Tyrosine Kinase kit. In either casse using approximately 1.5 μg of affinity purified PTK domain in the presence of 50 mM HEPES, pH 7.5, 10 mM MgCl2, 150 mM NaCl and 10 μM-1 mM ATP. The biotinylated substrate biotin-EGPWLEEEEEAYGWMDF-NH2 (SEQ ID NO:9) (final concentration 5 μM) was used as substrate. In the ELISA assay tyrosine phosphorylation was quantitated following transfer to an avidin coated ELISA plate using peroxidase-linked anti-phospho-tyrosine antibody PY20. In the Alphascreen assay, Alphascreen phosphotyrosine acceptor beads followed by streptavidin donor beads were added under subdued light. The ELISA plates were read on a BMG Fluorostar, the Alphascreen plates were read on a Packard Fusion Alpha. Inhibitors were added to the assays fifteen minutes prior to the addition of ATP. Inhibitors were added in aqueous DMSO, with DMSO concentrations never exceeding 1%.

Jak3 = target: T2, Jak3 (Homo sapiens, UniProt P52333); test: JAK3 kinase domain assay (ELISA or Alphascreen); conditions: capacity to inhibit 50% of activity at 50 μM; read-out: Jak3 inhibitory activity
T2 construct: The kinase domain of humanJAK3 was amplified from U937mRNA; His tag (from pFastBac HTb vector) (N); made in house; host or cells: baculovirus; Sf9 insect cells for virus, High Five cells for large-scale production
Method: as §1
• JAK2 PCR products were cloned into the pFastBac HTc expression vector (Gibco) via the Sal I and Not I sites. The JAK2 plasmid was then transformed into competent DH10Bac cells (Gibco), and the recombinant baculovirus produced prepared for transfection into Sf9 insect cells. JAK3 • The kinase domain of humanJAK3 was amplified from U937mRNA using the polymerase chain reaction with the following primers:
as §2, with “JAK3” for “JAK1”, “TYK2” for “JAK2”, “humanTYK2” for “humanJAK2”, “A549 mRNA” for “U937mRNA”, “primers: […]” for “primers:”
as §3, §4

abl = target: T3, abl (Homo sapiens, UniProt P00519); test: abl kinase assay (ELISA or Alphascreen); conditions: capacity to inhibit 50% of activity at 50 μM; read-out: abl inhibitory activity
T3 sequence (P00519 242-493 limits assumed): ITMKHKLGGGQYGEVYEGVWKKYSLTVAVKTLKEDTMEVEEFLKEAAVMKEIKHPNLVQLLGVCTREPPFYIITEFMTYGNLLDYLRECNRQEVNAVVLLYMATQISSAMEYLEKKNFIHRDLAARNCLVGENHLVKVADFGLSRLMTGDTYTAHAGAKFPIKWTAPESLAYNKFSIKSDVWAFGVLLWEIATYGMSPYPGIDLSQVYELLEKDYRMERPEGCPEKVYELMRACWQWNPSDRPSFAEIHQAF
Method: as §1, §4

hck = hck (Homo sapiens, UniProt P08631); test: hck kinase assay (ELISA or Alphascreen); conditions: capacity to inhibit 50% of activity at 50 μM; read-out: hck inhibitory activity
Method: as §1, §4

kdr = kdr (Homo sapiens, UniProt P35968); test: kdr kinase assay (ELISA or Alphascreen); conditions: capacity to inhibit 50% of activity at 50 μM; read-out: kdr inhibitory activity
Method: as §1, §4

Sequence of hck (P08631 262-515 limits assumed, species assumed): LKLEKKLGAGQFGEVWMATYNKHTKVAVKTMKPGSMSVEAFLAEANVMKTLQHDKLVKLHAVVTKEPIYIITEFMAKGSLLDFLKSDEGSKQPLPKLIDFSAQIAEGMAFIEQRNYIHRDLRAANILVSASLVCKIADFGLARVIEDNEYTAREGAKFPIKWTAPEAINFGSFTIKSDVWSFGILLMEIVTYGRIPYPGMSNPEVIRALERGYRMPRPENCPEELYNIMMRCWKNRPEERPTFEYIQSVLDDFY
Sequence of kdr (P35968 834-1162 limits assumed, species assumed): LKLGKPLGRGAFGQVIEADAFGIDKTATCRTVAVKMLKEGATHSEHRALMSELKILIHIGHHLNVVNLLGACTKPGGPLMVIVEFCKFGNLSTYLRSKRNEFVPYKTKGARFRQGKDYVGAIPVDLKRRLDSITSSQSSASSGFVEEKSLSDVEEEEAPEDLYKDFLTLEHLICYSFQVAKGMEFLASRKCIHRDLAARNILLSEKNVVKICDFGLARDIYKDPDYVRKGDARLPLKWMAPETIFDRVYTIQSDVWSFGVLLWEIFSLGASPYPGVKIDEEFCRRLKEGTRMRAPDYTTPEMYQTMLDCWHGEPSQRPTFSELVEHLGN
T2 sequence (P52333 822-1111 limits assumed): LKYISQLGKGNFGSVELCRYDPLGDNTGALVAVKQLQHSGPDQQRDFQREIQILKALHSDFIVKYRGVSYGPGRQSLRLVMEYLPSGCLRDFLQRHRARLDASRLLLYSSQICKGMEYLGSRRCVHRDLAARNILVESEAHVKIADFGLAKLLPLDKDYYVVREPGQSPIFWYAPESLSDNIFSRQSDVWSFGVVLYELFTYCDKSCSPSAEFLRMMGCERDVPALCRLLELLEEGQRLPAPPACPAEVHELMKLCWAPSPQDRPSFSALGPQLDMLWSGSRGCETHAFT
T1 sequence (O60674 849-1124 limits assumed): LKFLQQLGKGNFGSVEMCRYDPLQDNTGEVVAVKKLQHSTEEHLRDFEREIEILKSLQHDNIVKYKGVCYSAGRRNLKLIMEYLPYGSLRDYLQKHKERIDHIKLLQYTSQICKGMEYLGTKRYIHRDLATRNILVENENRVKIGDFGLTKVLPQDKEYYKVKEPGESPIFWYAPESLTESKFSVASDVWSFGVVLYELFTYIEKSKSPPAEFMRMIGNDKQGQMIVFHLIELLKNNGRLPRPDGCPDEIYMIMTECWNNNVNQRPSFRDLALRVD

Cc1nccn1-c1cncc(N[C@H](C)c2ccccc2)n1
inhibition at 50 µM (Jak2): < 50%
inhibition at 50 µM (Jak3): < 50%
inhibition at 50 µM (abl): < 50%
inhibition at 50 µM (hck): > 50%
inhibition at 50 µM (kdr): < 50%

CNC(=O)c1ccc2c(c1)ncn2-c1cncc(N[C@@H](C)c2ccccc2)n1
inhibition at 50 µM (Jak2): > 50%
inhibition at 50 µM (Jak3): < 50%
inhibition at 50 µM (abl): > 50%
inhibition at 50 µM (hck): > 50%
inhibition at 50 µM (kdr): > 50%

C[C@H](Nc1cncc(-n2cnc3cc(C(=O)NCCCN4CCOCC4)ccc32)n1)c1ccccc1
inhibition at 50 µM (Jak2): > 50%
inhibition at 50 µM (Jak3): > 50%
inhibition at 50 µM (abl): > 50%
inhibition at 50 µM (hck): > 50%
inhibition at 50 µM (kdr): > 50%

C[C@H](Nc1cncc(-n2cnc3cc(C4=NCCO4)ccc32)n1)c1ccccc1
inhibition at 50 µM (Jak2): < 50%
inhibition at 50 µM (Jak3): < 50%
inhibition at 50 µM (abl): > 50%
inhibition at 50 µM (hck): > 50%
inhibition at 50 µM (kdr): > 50%

CCN(CC)Cc1ccc2ncn(-c3cncc(NC(C)c4ccc(F)cc4)n3)c2c1 (stereo not shown)
inhibition at 50 µM (Jak2): > 50%
inhibition at 50 µM (Jak3): < 50%
inhibition at 50 µM (abl): < 50%
inhibition at 50 µM (hck): > 50%
inhibition at 50 µM (kdr): > 50%

C[C@H](Nc1cncc(-n2cnc3cc(CO)ccc32)n1)c1ccccc1
inhibition at 50 µM (Jak2): > 50%
inhibition at 50 µM (Jak3): < 50%
inhibition at 50 µM (abl): < 50%
inhibition at 50 µM (hck): > 50%
inhibition at 50 µM (kdr): > 50%

C[C@H](Nc1cncc(-n2cnc3cc(C(=O)NCCCCN4CCOCC4)ccc32)n1)c1ccccc1
inhibition at 50 µM (Jak2): > 50%
inhibition at 50 µM (Jak3): > 50%
inhibition at 50 µM (abl): > 50%
inhibition at 50 µM (hck): > 50%
inhibition at 50 µM (kdr): > 50%

C[C@H](Nc1cncc(-n2cnc3ccc(NC(=O)c4cnccn4)cc32)n1)c1ccccc1
inhibition at 50 µM (Jak2): > 50%
inhibition at 50 µM (Jak3): < 50%
inhibition at 50 µM (abl): < 50%
inhibition at 50 µM (hck): > 50%
inhibition at 50 µM (kdr): > 50%

C[C@H](Nc1cncc(-n2cnc(-c3ccccc3)c2)n1)c1ccccc1
inhibition at 50 µM (Jak2): < 50%
inhibition at 50 µM (Jak3): > 50%
inhibition at 50 µM (abl): < 50%
inhibition at 50 µM (hck): > 50%
inhibition at 50 µM (kdr): < 50%

C[C@H](Nc1cncc(-n2cnc3cc(NC(=O)C4CCCN4)ccc32)n1)c1ccccc1 (stereo partly shown)
inhibition at 50 µM (Jak2): > 50%
inhibition at 50 µM (Jak3): > 50%
inhibition at 50 µM (abl): < 50%
inhibition at 50 µM (hck): > 50%
inhibition at 50 µM (kdr): > 50%

C[C@H](Nc1cncc(-n2cnc3cc(C(=O)NCc4ccccc4)ccc32)n1)c1ccccc1
inhibition at 50 µM (Jak2): < 50%
inhibition at 50 µM (Jak3): < 50%
inhibition at 50 µM (abl): > 50%
inhibition at 50 µM (hck): > 50%
inhibition at 50 µM (kdr): > 50%

c1ccc(CNc2cncc(-n3ccnc3)n2)cc1
inhibition at 50 µM (Jak2): < 50%
inhibition at 50 µM (Jak3): < 50%
inhibition at 50 µM (abl): > 50%
inhibition at 50 µM (hck): > 50%
inhibition at 50 µM (kdr): < 50%

C[C@H](Nc1cncc(-n2cnc3cc(NCc4cccnc4)ccc32)n1)c1ccccc1
inhibition at 50 µM (Jak2): > 50%
inhibition at 50 µM (Jak3): > 50%
inhibition at 50 µM (abl): > 50%
inhibition at 50 µM (hck): > 50%
inhibition at 50 µM (kdr): > 50%

C[C@H](Nc1cncc(-n2cnc3cc(NC(=O)[C@@H]4CCCN4C(=O)OC(C)(C)C)ccc32)n1)c1ccccc1
inhibition at 50 µM (Jak2): > 50%
inhibition at 50 µM (Jak3): < 50%
inhibition at 50 µM (abl): > 50%
inhibition at 50 µM (hck): > 50%
inhibition at 50 µM (kdr): > 50%

C[C@@H](Nc1cncc(-n2cnc3ncccc32)n1)c1ccccc1
inhibition at 50 µM (Jak2): < 50%
inhibition at 50 µM (Jak3): < 50%
inhibition at 50 µM (abl): < 50%
inhibition at 50 µM (hck): < 50%
inhibition at 50 µM (kdr): < 50%

C[C@H](Nc1cncc(-n2cnc3ccc(C(=O)N4CCN(C)CC4)cc32)n1)c1ccccc1
inhibition at 50 µM (Jak2): < 50%
inhibition at 50 µM (Jak3): < 50%
inhibition at 50 µM (abl): < 50%
inhibition at 50 µM (hck): > 50%
inhibition at 50 µM (kdr): < 50%

COCC(=O)Nc1ccc2c(c1)ncn2-c1cncc(N[C@@H](C)c2ccccc2)n1
inhibition at 50 µM (Jak2): < 50%
inhibition at 50 µM (Jak3): < 50%
inhibition at 50 µM (abl): > 50%
inhibition at 50 µM (hck): > 50%
inhibition at 50 µM (kdr): > 50%

C[C@H](Nc1cncc(-n2cnc3cc(NC(=O)C4CCCNC4)ccc32)n1)c1ccccc1 (stereo partly shown)
inhibition at 50 µM (Jak2): > 50%
inhibition at 50 µM (Jak3): > 50%
inhibition at 50 µM (abl): > 50%
inhibition at 50 µM (hck): > 50%
inhibition at 50 µM (kdr): > 50%

Fc1ccc(CNc2cncc(-n3cnc4ccccc43)n2)cc1
inhibition at 50 µM (Jak2): > 50%
inhibition at 50 µM (Jak3): < 50%
inhibition at 50 µM (abl): > 50%
inhibition at 50 µM (hck): > 50%
inhibition at 50 µM (kdr): < 50%

CC(Nc1cncc(-n2cnc3ccccc32)n1)c1cccnc1 (stereo not shown)
inhibition at 50 µM (Jak2): > 50%
inhibition at 50 µM (Jak3): > 50%
inhibition at 50 µM (abl): > 50%
inhibition at 50 µM (hck): > 50%
inhibition at 50 µM (kdr): > 50%

C[C@H](Nc1cncc(-n2cnc3ccccc32)n1)c1ccc(Br)cc1
inhibition at 50 µM (Jak2): < 50%
inhibition at 50 µM (Jak3): < 50%
inhibition at 50 µM (abl): > 50%
inhibition at 50 µM (kdr): > 50%

C[C@H](Nc1cncc(-n2cnc3cc(NC(=O)C(C)(C)C)ccc32)n1)c1ccccc1
inhibition at 50 µM (Jak2): > 50%
inhibition at 50 µM (Jak3): > 50%
inhibition at 50 µM (abl): > 50%
inhibition at 50 µM (hck): > 50%
inhibition at 50 µM (kdr): > 50%

CC(=O)Nc1ccc2ncn(-c3cncc(N[C@@H](C)c4ccccc4)n3)c2c1
inhibition at 50 µM (Jak2): > 50%
inhibition at 50 µM (Jak3): < 50%
inhibition at 50 µM (abl): > 50%
inhibition at 50 µM (hck): > 50%
inhibition at 50 µM (kdr): > 50%

C[C@H](Nc1cncc(-n2cnc3ccc(NS(C)(=O)=O)cc32)n1)c1ccccc1
inhibition at 50 µM (Jak2): > 50%
inhibition at 50 µM (Jak3): < 50%
inhibition at 50 µM (abl): > 50%
inhibition at 50 µM (hck): > 50%
inhibition at 50 µM (kdr): > 50%

C[C@H](Nc1cncc(-n2cnc3ccc(C(=O)NCCCCN4CCOCC4)cc32)n1)c1ccccc1
inhibition at 50 µM (Jak2): > 50%
inhibition at 50 µM (Jak3): > 50%
inhibition at 50 µM (abl): > 50%
inhibition at 50 µM (hck): > 50%
inhibition at 50 µM (kdr): > 50%

C[C@H](Nc1cncc(-n2cnc3ccc(NC(=O)c4ccccc4)cc32)n1)c1ccccc1
inhibition at 50 µM (Jak2): < 50%
inhibition at 50 µM (Jak3): < 50%
inhibition at 50 µM (abl): > 50%
inhibition at 50 µM (hck): > 50%
inhibition at 50 µM (kdr): > 50%

C[C@H](Nc1cncc(-n2cnc3ccc(NC(=O)c4ccncc4)cc32)n1)c1ccccc1
inhibition at 50 µM (Jak2): > 50%
inhibition at 50 µM (Jak3): < 50%
inhibition at 50 µM (abl): > 50%
inhibition at 50 µM (hck): < 50%
inhibition at 50 µM (kdr): > 50%

C[C@H](Nc1cncc(-n2cnc3ccccc32)n1)c1ccccc1
inhibition at 50 µM (Jak2): > 50%
inhibition at 50 µM (Jak3): < 50%
inhibition at 50 µM (abl): > 50%
inhibition at 50 µM (hck): > 50%
inhibition at 50 µM (kdr): > 50%

C[C@H](Nc1cncc(-n2cnc3ccc(C(N)=O)cc32)n1)c1ccccc1
inhibition at 50 µM (Jak2): > 50%
inhibition at 50 µM (Jak3): < 50%
inhibition at 50 µM (abl): > 50%
inhibition at 50 µM (hck): > 50%
inhibition at 50 µM (kdr): > 50%

COc1ccc([C@H](C)Nc2cncc(-n3cnc4ccccc43)n2)cc1
inhibition at 50 µM (Jak2): < 50%
inhibition at 50 µM (Jak3): < 50%
inhibition at 50 µM (abl): > 50%
inhibition at 50 µM (kdr): > 50%
